Our source for the GI50 and TGI values is PubChem BioAssay (NCI).

Where “and” joins values, the source holds several entries; their conditions need not be identical. Equal values may be shown once.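 Growth conditions: 96-well plates. Treatment: test compound, 48 hours, 5 concentrations. Analysis: linear interpolation between bracketing concentrations; unreached endpoints set to highest concentration. GI50 marks 50% less growth. TGI: concentration producing complete growth inhibition.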 Where only a bound is given, the exact number is not on record here.

Some test systems named below: UACC-62 melanoma; EKVX NSCLC; SK-MEL-28 melanoma; SF-539 CNS; SK-OV-3 ovarian; IGROV1 ovarian; HS 578T breast; T-47D breast; OVCAR-3 ovarian; SN12C renal.
Experiment in all cases: DTP human tumour cell line panel, 48 h

On to `COc1ccc(/C=C(\C#N)n2nnc3c(F)cccc32)cc1`, for which the 50% growth inhibitory concentration (GI50) – broadly, the concentration at which growth is held to half of that of the control – in the experiment with UACC-62 melanoma is 0.303 µM; in the experiment on EKVX NSCLC, 0.501 µM; in the experiment with SK-MEL-28 melanoma, 1.28 µM; in the experiment with SF-539 CNS it was 0.322 µM; with SK-OV-3 ovarian it was 1.05 µM; in the experiment with IGROV1 ovarian it was 0.388 µM. The GI50 is 0.309 µM in the experiment on HS 578T breast, 1.05 µM in the experiment on T-47D breast, 0.283 µM in the experiment with OVCAR-3 ovarian and 0.585 µM with SN12C renal. For the same compound, the TGI (usually the concentration at which net growth stops) was 15 µM in the experiment on UACC-62 melanoma; above 100 µM with EKVX NSCLC; above 100 µM with SK-MEL-28 melanoma; 1.48 µM with SF-539 CNS; above 90 µM with SK-OV-3 ovarian; above 36.9 µM in the experiment on IGROV1 ovarian. The TGI in the experiment on HS 578T breast was 1.98 µM; with T-47D breast it was above 100 µM; in the experiment with OVCAR-3 ovarian, 2.53 µM; with SN12C renal, above 100 µM.

With `C=CCN1CC(=O)N2[C@@H](Cc3ccc(O)cc3F)C(=O)N(Cc3cccc(N4CC(N5CCN(CC)CC5)C4)n3)C[C@@H]2N1C(=O)NCc1ccccc1`, the concentration for 50% growth inhibition (GI50) in the experiment on UACC-62 melanoma was 0.0539 µM; in the experiment with EKVX NSCLC it was 0.278 µM; in the experiment on SK-MEL-28 melanoma, 0.0405 µM; in the experiment on SF-539 CNS it was 0.0317 µM; in the experiment on SK-OV-3 ovarian, 0.0345 µM; with HS 578T breast, 0.0279 µM. In addition, the GI50 with T-47D breast was 0.0339 µM; in the experiment on OVCAR-3 ovarian, 0.0328 µM; in the experiment with SN12C renal, 0.111 µM. Also, the TGI is 10.5 µM in the experiment with UACC-62 melanoma; above 100 µM in the experiment with EKVX NSCLC; above 100 µM in the experiment on SK-MEL-28 melanoma; 0.288 µM in the experiment with SF-539 CNS; 0.244 µM with SK-OV-3 ovarian; 0.15 µM in the experiment with HS 578T breast. The total growth inhibition concentration (TGI) with T-47D breast, in the experiment on OVCAR-3 ovarian and in the experiment on SN12C renal was above 100 µM throughout.

With `Cc1cc(N=Nc2ccccc2C)ccc1N`, the TGI in the experiment with UACC-62 melanoma is 25.1 µM and 30.6 µM; with EKVX NSCLC, 45.4 µM and 68 µM; in the experiment with SK-MEL-28 melanoma, 44.3 µM; with SF-539 CNS, 12.1 µM and 11.6 µM; in the experiment on SK-OV-3 ovarian, 67 µM and 66.9 µM; in the experiment with IGROV1 ovarian, 48.3 µM and 20 µM. For the same compound, the TGI is 32.1 µM and 45.9 µM in the experiment on HS 578T breast; 78.5 µM in the experiment with T-47D breast; 21.8 µM and 23.7 µM in the experiment on OVCAR-3 ovarian; 27.4 µM and 16.3 µM in the experiment on SN12C renal. For the same compound, the GI50 in the experiment with EKVX NSCLC is 11.7 µM; in the experiment with SK-OV-3 ovarian, 22.2 µM; in the experiment with IGROV1 ovarian it was 5.1 µM; with HS 578T breast, 13.3 µM; in the experiment on T-47D breast it was 13.3 µM; with SN12C renal, 2.86 µM.

For the compound `COC(=O)c1cncc(/C=C/c2c(C)cc(O)cc2C)c1`, the GI50 in the experiment on UACC-62 melanoma was 7.71 µM; in the experiment with EKVX NSCLC, above 17.3 µM; in the experiment on SK-MEL-28 melanoma, above 12.7 µM; with SF-539 CNS, 11 µM; with SK-OV-3 ovarian, 8.01 µM; with IGROV1 ovarian, above 19.8 µM. The GI50 with HS 578T breast was 6.91 µM; in the experiment on T-47D breast, 11 µM; in the experiment on OVCAR-3 ovarian, 10.1 µM; in the experiment on SN12C renal, 11.2 µM. Further, the TGI was above 25 µM in the experiment with UACC-62 melanoma; above 25 µM with EKVX NSCLC; 24.8 µM with SK-MEL-28 melanoma; above 25 µM with SF-539 CNS; 24.8 µM in the experiment with SK-OV-3 ovarian; above 25 µM in the experiment with IGROV1 ovarian. Also, the total growth inhibition concentration (TGI) was above 25 µM in the experiment with HS 578T breast, above 22.2 µM in the experiment on T-47D breast, above 21.1 µM with OVCAR-3 ovarian and above 25 µM in the experiment on SN12C renal.

`COc1ncnc(NS(=O)(=O)c2ccc(N=C3C(=O)N(CN4CCN(c5c(F)cc6c(=O)c(C(=O)O)cn(C7CC7)c6c5OC)CC4C)c4ccc(Br)cc43)cc2)c1OC` (stereo not drawn): the GI50 is 2.61 µM in the experiment with UACC-62 melanoma; 6.4 µM with EKVX NSCLC; above 50 µM in the experiment on SK-MEL-28 melanoma; 7.53 µM in the experiment with SF-539 CNS; 17.3 µM in the experiment with IGROV1 ovarian; 12.1 µM with HS 578T breast. The GI50 in the experiment with OVCAR-3 ovarian is 7.52 µM; in the experiment on SN12C renal, 10.1 µM. For the same compound, the TGI in the experiment with UACC-62 melanoma is 11.3 µM; in the experiment on EKVX NSCLC, 44.8 µM; with SK-MEL-28 melanoma, above 50 µM; with SF-539 CNS, 22.1 µM; with IGROV1 ovarian it was above 50 µM; in the experiment with HS 578T breast, above 50 µM. Further, the TGI with OVCAR-3 ovarian turned out to be 40.7 µM; in the experiment on SN12C renal, 23.4 µM.

For the compound `COC(=O)[C@H]1CCCN1C(=O)[C@H]1CCCN1C(=O)[C@@H](Cc1c[nH]c2ccccc12)NC(=S)Nc1cc(C(F)(F)F)cc(C(F)(F)F)c1`, the GI50 with UACC-62 melanoma is 1.84 µM; in the experiment on SK-MEL-28 melanoma it was 2.07 µM; in the experiment with SF-539 CNS it was 1.92 µM; in the experiment with SK-OV-3 ovarian, 3.01 µM; with IGROV1 ovarian, 1.88 µM; in the experiment with HS 578T breast, 2.03 µM. In addition, the GI50 with T-47D breast was 3.27 µM; with OVCAR-3 ovarian, 1.69 µM; with SN12C renal, 1.69 µM. In addition, the TGI with UACC-62 melanoma was determined as 3.79 µM; with SK-MEL-28 melanoma, 4.17 µM; in the experiment with SF-539 CNS it was 3.61 µM; with SK-OV-3 ovarian, 10.1 µM; in the experiment with IGROV1 ovarian, 4.16 µM; in the experiment on HS 578T breast, 5.17 µM. In addition, the TGI turned out to be 16.4 µM in the experiment on T-47D breast, 3.41 µM in the experiment with OVCAR-3 ovarian and 3.19 µM in the experiment with SN12C renal.

For `O=C1OC(C(O)CO)C(O)=C1O` (stereo not drawn), the GI50 with UACC-62 melanoma was 1670 µM and 2050 µM; in the experiment with EKVX NSCLC it was 2420 µM; with SK-MEL-28 melanoma it was 2530 µM and > 10000 µM; in the experiment with SF-539 CNS, 1900 µM and 1390 µM; in the experiment with SK-OV-3 ovarian, 6030 µM and > 4760 µM; in the experiment on IGROV1 ovarian it was 2040 µM and > 2490 µM. The GI50 in the experiment with HS 578T breast is 2990 µM and > 10000 µM; in the experiment with T-47D breast, 2080 µM and 2100 µM; with OVCAR-3 ovarian, 1560 µM; in the experiment with SN12C renal, 1460 µM and 1540 µM. For the same compound, the TGI is 3050 µM and > 5130 µM in the experiment on UACC-62 melanoma; 4390 µM with EKVX NSCLC; 6230 µM and > 10000 µM with SK-MEL-28 melanoma; 3360 µM and 1830 µM in the experiment on SF-539 CNS; above 10000 µM with SK-OV-3 ovarian; 4140 µM and > 4350 µM in the experiment on IGROV1 ovarian. In addition, the TGI with HS 578T breast is 7960 µM and > 10000 µM; in the experiment on T-47D breast, 4800 µM and 4380 µM; with OVCAR-3 ovarian, 2900 µM; in the experiment with SN12C renal, 2810 µM and 3070 µM.
